Counter-ions that a name gives are not always drawn. Like-named read-outs stand apart in the source and are kept apart here.

What all share (assay): AK assay 384-well format, Prestwick library screening
For assay [1], the system named is E. faecium. The assay is classed as cell-based, Enterococcus faecium. Conditions: for fold induction at 50 µM: Enterococcus faecium, 3 h; for AK-based Prestwick Library Screening Results, E. faecium (fold increase in extracellular AK activity): planktonic.
For assay [2], the system named is S. aureus strain USA300-0114. The format is cell-based, Staphylococcus aureus. The note with it: for fold induction at 50 µM: Staphylococcus aureus, USA300, 3 h; for AK-based Prestwick Library Screening Results, S. aureus (fold increase in extracellular AK activity): planktonic.
Assay [3] has as its system K. pneumoniae. The format is cell-based, Klebsiella pneumoniae. Conditions: for fold induction at 50 µM: Klebsiella pneumoniae, 3 h; for AK-based Prestwick Library Screening Results, K. pneumoniae (fold increase in extracellular AK activity): planktonic.
The test system of assay [4] is A. baumannii strain 98-37-09. The assay is classed as cell-based, Acinetobacter baumannii. Conditions: for fold induction at 50 µM: Acinetobacter baumannii, 983709, 3 h; for AK-based Prestwick Library Screening Results, A. baumannii (fold increase in extracellular AK activity): planktonic.
The subject of assay [5] is P. aeruginosa. The format is cell-based, Pseudomonas aeruginosa. The note with it: for fold induction at 50 µM: Pseudomonas aeruginosa, 3 h; for AK-based Prestwick Library Screening Results, P. aeruginosa (fold increase in extracellular AK activity): planktonic.
Assay [6] concerns E. cloacae. The assay is classed as cell-based, Enterobacter cloacae. The note with it: for fold induction at 50 µM: Enterobacter cloacae, 3 h; for AK-based Prestwick Library Screening Results, E. cloacae (fold increase in extracellular AK activity): planktonic.
In assay [7] the test system is E. coli. The assay is classed as cell-based, Escherichia coli. Conditions: for fold induction at 50 µM: Escherichia coli, 3 h; for AK-based Prestwick Library Screening Results, E. coli (fold increase in extracellular AK activity): planktonic.
Setting [8] is: planktonic E. faecium, 50 μM final drug concentration, positive cutoff 3-fold increase, read-out: AK-based Prestwick library screening result, E. faecium (fold increase in extracellular AK activity).
Setting [9] is: planktonic S. aureus, 50 μM final drug concentration, positive cutoff 3-fold increase, read-out: AK-based Prestwick library screening result, S. aureus (fold increase in extracellular AK activity).
[10] abbreviates: planktonic K. pneumoniae, 50 μM final drug concentration, positive cutoff 3-fold increase, read-out: AK-based Prestwick library screening result, K. pneumoniae (fold increase in extracellular AK activity).
Setting [11] is: planktonic A. baumannii, 50 μM final drug concentration, positive cutoff 3-fold increase, read-out: AK-based Prestwick library screening result, A. baumannii (fold increase in extracellular AK activity).
[12] abbreviates: planktonic P. aeruginosa, 50 μM final drug concentration, positive cutoff 3-fold increase, read-out: AK-based Prestwick library screening result, P. aeruginosa (fold increase in extracellular AK activity).
Where [13] appears, read: planktonic E. cloacae, 50 μM final drug concentration, positive cutoff 3-fold increase, read-out: AK-based Prestwick library screening result, E. cloacae (fold increase in extracellular AK activity).
Where [14] appears, read: planktonic E. coli, 50 μM final drug concentration, positive cutoff 3-fold increase, read-out: AK-based Prestwick library screening result, E. coli (fold increase in extracellular AK activity).
Setting [15] is: 50 μM final drug concentration, 384-well format, cutoff for positive-scoring molecules 3-fold increase, read-out: AK-based Prestwick Library Screening Results, E. faecium (increase in extracellular AK activity).
Where [16] appears, read: 50 μM final drug concentration, 384-well format, cutoff for positive-scoring molecules 3-fold increase, read-out: AK-based Prestwick Library Screening Results, S. aureus (increase in extracellular AK activity).
The mark [17] stands for this setting: 50 μM final drug concentration, 384-well format, cutoff for positive-scoring molecules 3-fold increase, read-out: AK-based Prestwick Library Screening Results, K. pneumoniae (increase in extracellular AK activity).
The mark [18] stands for this setting: 50 μM final drug concentration, 384-well format, cutoff for positive-scoring molecules 3-fold increase, read-out: AK-based Prestwick Library Screening Results, A. baumannii (increase in extracellular AK activity).
The mark [19] stands for this setting: 50 μM final drug concentration, 384-well format, cutoff for positive-scoring molecules 3-fold increase, read-out: AK-based Prestwick Library Screening Results, P. aeruginosa (increase in extracellular AK activity).
[20] abbreviates: 50 μM final drug concentration, 384-well format, cutoff for positive-scoring molecules 3-fold increase, read-out: AK-based Prestwick Library Screening Results, E. cloacae (increase in extracellular AK activity).
[21] abbreviates: 50 μM final drug concentration, 384-well format, cutoff for positive-scoring molecules 3-fold increase, read-out: AK-based Prestwick Library Screening Results, E. coli (increase in extracellular AK activity).
Where [22] appears, read: 50 μM final drug concentration, cutoff for positive-scoring molecules 3-fold increase.
Where [23] appears, read: 50 μM final drug concentration, […].

Take `CS(=O)(=O)Nc1ccc([N+](=O)[O-])cc1Oc1ccccc1` [Nimesulide]: the fold induction at 50 µM in assay [1] (read-out: AK-based Prestwick Library Screening Results, E. faecium (increase in extracellular AK activity)) worked out at 0.8; in assay [2] (read-out: AK-based Prestwick Library Screening Results, S. aureus (increase in extracellular AK activity)), 0.7; in assay [3] (read-out: AK-based Prestwick Library Screening Results, K. pneumoniae (increase in extracellular AK activity)), 0.7; in assay [4] (read-out: AK-based Prestwick Library Screening Results, A. baumannii (increase in extracellular AK activity)), 0.9; in assay [5] (read-out: AK-based Prestwick Library Screening Results, P. aeruginosa (increase in extracellular AK activity)), 0.9; in assay [6] (read-out: AK-based Prestwick Library Screening Results, E. cloacae (increase in extracellular AK activity)) it was 1.4. For the same molecule, the fold induction at 50 µM in assay [7] (read-out: AK-based Prestwick Library Screening Results, E. coli (increase in extracellular AK activity)) stood at 0.9.
`CCCNC(C)(C)COC(=O)c1ccccc1` [Meprylcaine hydrochloride]: the fold induction at 50 µM stood at 0.9 in assay [1] (setting [8]); 0.6 in assay [2] (setting [9]); 0.7 in assay [3] (setting [10]); 0.8 in assay [4] (setting [11]); 0.9 in assay [5] (setting [12]); 0.8 in assay [6] (setting [13]). The fold induction at 50 µM in assay [7] (setting [14]) worked out at 0.9.
For the molecule `C=CCc1ccccc1OCC(O)CNC(C)C` (stereo not drawn) [Alprenolol hydrochloride], the fold induction at 50 µM in assay [1] (setting [15]) was determined as 0.9; in assay [2] (setting [16]) it was 0.6; in assay [3] (setting [17]), 0.5; in assay [4] (setting [18]) it was 0.7; in assay [5] (setting [19]) it was 0.5; in assay [6] (setting [20]), 0.4. Besides, the fold induction at 50 µM in assay [7] (setting [21]) was found to be 0.6.
As to `CC(C)NCC(O)COc1cccc2[nH]ccc12` (stereo not drawn) [Pindolol], the fold induction at 50 µM in assay [1] (setting [15]) came out at 1; in assay [2] (setting [16]), 0.5; in assay [3] (setting [17]), 0.6; in assay [4] (setting [18]), 0.5; in assay [5] (setting [19]) it was 0.4; in assay [6] (setting [20]) it was 0.4. In addition, the fold induction at 50 µM in assay [7] (setting [21]) was determined as 0.5.
With Carbinoxamine maleate salt, the “AK-based Prestwick Library Screening Results, E. faecium (fold increase in extracellular AK activity)” value in assay [1] (setting [22]) was 0.8. Besides, the “AK-based Prestwick Library Screening Results, S. aureus (fold increase in extracellular AK activity)” value in assay [2] (setting [22]) worked out at 0.6. Moreover, in assay [3] (setting [22]), the “AK-based Prestwick Library Screening Results, K. pneumoniae (fold increase in extracellular AK activity)” value is on record as 0.6. For the same molecule, in assay [4] (setting [22]), the “AK-based Prestwick Library Screening Results, A. baumannii (fold increase in extracellular AK activity)” value came out at 0.7. Also, in assay [5] (setting [22]), the “AK-based Prestwick Library Screening Results, P. aeruginosa (fold increase in extracellular AK activity)” value was 0.6. In addition, the “AK-based Prestwick Library Screening Results, E. cloacae (fold increase in extracellular AK activity)” value in assay [6] (setting [22]) came to 0.7. In assay [7] (setting [22]), the “AK-based Prestwick Library Screening Results, E. coli (fold increase in extracellular AK activity)” value was 0.7.
As to `CN1[C@@H]2CC[C@H]1C[C@@H](O)C2` [Tropine], the fold induction at 50 µM in assay [1] (planktonic E. faecium, 50 μM final drug concentration, […], read-out: AK-based Prestwick library screening result, E. faecium (fold increase in extracellular AK activity)) was found to be 0.9; in assay [2] (planktonic S. aureus, 50 μM final drug concentration, […], read-out: AK-based Prestwick library screening result, S. aureus (fold increase in extracellular AK activity)), 0.7; in assay [3] (planktonic K. pneumoniae, 50 μM final drug concentration, […], read-out: AK-based Prestwick library screening result, K. pneumoniae (fold increase in extracellular AK activity)), 0.8; in assay [4] (planktonic A. baumannii, 50 μM final drug concentration, […], read-out: AK-based Prestwick library screening result, A. baumannii (fold increase in extracellular AK activity)), 0.8; in assay [5] (planktonic P. aeruginosa, 50 μM final drug concentration, […], read-out: AK-based Prestwick library screening result, P. aeruginosa (fold increase in extracellular AK activity)), 0.8; in assay [6] (planktonic E. cloacae, 50 μM final drug concentration, […], read-out: AK-based Prestwick library screening result, E. cloacae (fold increase in extracellular AK activity)) it was 1.2. For the same molecule, the fold induction at 50 µM in assay [7] (planktonic E. coli, 50 μM final drug concentration, […], read-out: AK-based Prestwick library screening result, E. coli (fold increase in extracellular AK activity)) was 0.9.
With `COc1ccccc1N1CCN(CCCCNC(=O)c2ccc3ccccc3c2)CC1` [DO 897/99], the “AK-based Prestwick Library Screening Results, E. faecium (fold increase in extracellular AK activity)” value in assay [1] (setting [23]) came to 1.0. In assay [2] (setting [23]), the “AK-based Prestwick Library Screening Results, S. aureus (fold increase in extracellular AK activity)” value stood at 1.1. In addition, in assay [3] (setting [23]), the “AK-based Prestwick Library Screening Results, K. pneumoniae (fold increase in extracellular AK activity)” value is listed as 1.3. For the same molecule, the “AK-based Prestwick Library Screening Results, A. baumannii (fold increase in extracellular AK activity)” value in assay [4] (setting [23]) was found to be 1.2. Besides, the “AK-based Prestwick Library Screening Results, P. aeruginosa (fold increase in extracellular AK activity)” value in assay [5] (setting [23]) is 1.3. Moreover, the “AK-based Prestwick Library Screening Results, E. cloacae (fold increase in extracellular AK activity)” value in assay [6] (setting [23]) is recorded as 1.7. The “AK-based Prestwick Library Screening Results, E. coli (fold increase in extracellular AK activity)” value in assay [7] (setting [23]) came out at 1.4.
As to `CC(=O)Oc1ccccc1C(=O)Oc1ccccc1C(=O)O` [Acetylsalicylsalicylic acid], the fold induction at 50 µM in assay [1] (setting [15]) came to 1; in assay [2] (setting [16]) it was 0.7; in assay [3] (setting [17]) it was 0.6; in assay [4] (setting [18]), 0.7; in assay [5] (setting [19]) it was 0.6; in assay [6] (setting [20]), 0.8. Besides, in assay [7] (setting [21]), the fold induction at 50 µM turned out to be 0.6.
`CC1CC(OC(=O)c2ccccc2O)CC(C)(C)C1` (stereo not drawn) [Homosalate]: the fold induction at 50 µM stood at 1.1 in assay [1] (setting [8]); 1.2 in assay [2] (setting [9]); 1.1 in assay [3] (setting [10]); 1.8 in assay [4] (setting [11]); 1.1 in assay [5] (setting [12]); 1.5 in assay [6] (setting [13]). For the same molecule, the fold induction at 50 µM in assay [7] (setting [14]) came out at 1.3.
